According to ChEMBL document CHEMBL3244203, “Absolute configuration of glycerol derivatives. 4. Synthesis and pharmacological activity of chiral 2-alkylaminomethylbenzodioxans, competitive alpha-adrenergic antagonists” (J Med Chem, 1977):

Assays:
[1] = Competitive antagonist activity at alpha-adrenergic receptor in New Zealand rabbit aorta assessed as inhibition of methoxamine-induced contraction incubated for 1 hr; type: tissue-based, Oryctolagus cuniculus
[2] = target: Adrenergic receptor alpha; experiment: Displacement of [3H]dihydroazapetine from alpha-adrenoreceptor in rat vas deferens

Row | pKd [2] | SMILES | pA2 [1]
1 | 6.21 | CCN(CC)C[C@H]1COc2ccccc2O1 | 5.6
2 | – | CCN(CC)C[C@@H]1COc2ccccc2O1 | 5.26
3 | – | c1ccc2c(c1)OC[C@H](CN1CCCCC1)O2 | 7.12
4 | – | c1ccc2c(c1)OC[C@@H](CN1CCCCC1)O2 | 5.86
5 | 6.85 | c1ccc2c(c1)OC[C@H](CN1CCN(C[C@H]3COc4ccccc4O3)CC1)O2 | 7.66
6 | 6.25 | c1ccc2c(c1)OC[C@@H](CN1CCN(C[C@@H]3COc4ccccc4O3)CC1)O2 | 6.38
7 | – | c1ccc2c(c1)OCC(CN1CCN(CC3COc4ccccc4O3)CC1)O2 (stereo not given) | 7.53
